Source: patent publication US20180106782A1, “HIGH THROUGHPUT CARDIOTOXICITY SCREENING PLATFORM” (The Board of Trustees of the Leland Stanford Junior …, priority 2016, published 2018)

Tested on: μpatterned hiPSC-CMs
Test: traction force microscopy of moving microbeads under beating μpatterned hiPSC-CMs
Assay type: cell-based, human
Experimental: We cultured single hiPSC-CMs on Matrigel micropatterns, which were transferred from printed glass coverslips onto the surface of polyacrylamide hydrogels with a stiffness of 10 kPa as previously described. (Ribeiro 2015a) In summary, Matrigel was diluted 1:10 in L15 medium (Thermo Fisher) and added to the top of elastomeric microstamps composed of polydimethylsiloxane 182 (Dow Corning) to be incubated at 3-4° C. overnight. Microstamps consisted of 2000 μm^2 rectangular features with an aspect ratio of 7:1 (length:width). We gently aspirated Matrigel after the overnight incubation, washed the stamps twice in L15 medium, aspirated L15 medium from the surface and dried it with a low stream of N2 gas. We then used microstamps to micropattern the Matrigel rectangular features on clean glass coverslips by microcontact printing. Matrigel on micropatterns was transferred to the surface of the polyacrylamide substrates during the gelation process by placing the patterned coverslip in contact with the top of the acrylamide prepolymer solution right before gelation. The aqueous prepolymer solution to be gelled was composed of acrylamide (Sigma-Aldrich)(10% w/v), bisacrylamide (Sigma-Aldrich) (0.1% w/v), ammonium persulfate (Sigma-Aldrich) (0.01% w/v) and N,N,N′,N′-tetramethylethylenediamine (Sigma-Aldrich) (0.1% v/v), HEPES (Thermo Fisher) (35 mM) and Milli-Q water. To calculate the forces generated by cells attached to polyacrylamide surfaces with traction force microscopy, green fluorescent microbeads with a diameter of 0.2 μm (Thermo Fisher) were also dispersed in the gel solution to yield a final concentration of 6.25×10^9 microbeads/mL. We gelled acrylamide on top of another coverslip functionalized with 3-(trimethoxysilyl)propyl methacrylate (Sigma-Aldrich), which binds polyacrylamide. […] Once polymerized, polyacrylamide substrates were incubated in PBS for at least 2 hours and the top coverslips were carefully removed with a razor blade. We seeded hiPSC-CMs on these polyacrylamide hydrogel substrates after washing them 3 times with PBS.
We passaged hiPSC-CMs onto micropatterned polyacrylamide devices at a density of 1000 cells/cm^2. For this purpose, cultures of thawed cells were washed twice with PBS and incubated in 1 mL of Accutase for 8-10 min. After observing cell detachment from the bottom of the wells, we quenched Accutase with Dulbecco's modified Eagle's medium (Thermo Fisher) containing 12% fetal bovine serum and counted the concentration of cells in medium with a hemocytometer. Then, we centrifuged cells at 83 rcf for 3 min at room temperature and aspirated the supernatant to resuspend the pelleted cells in the required volume of medium (RPMI-1640 cell-culture medium with 5 μM ROCK inhibitor) for adding 150 μL of cell solution to the surface of hydrogel devices at a concentration of 1000 cells/cm^2. After 1.5 h of incubation, we added 2.5 mL of medium to the well containing hydrogel devices and added fresh medium without ROCK inhibitor after 2 days. Single beating cells on Matrigel patterns were analyzed between 5-10 days after seeding.
We imaged the movement of beating hiPSC-CMs and the displacement of fluorescent microbeads embedded in polyacrylamide substrates with a Zeiss Axiovert 200M inverted microscope equipped with a Zeiss Axiocam MRm CCD camera. This microscope also contained an environmental chamber (PeCon) to set temperature at 37° C. Unless otherwise noted, we acquired microscopy videos while electrically pacing hiPSC-CMs with 10 ms-wide bipolar pulses of electric-field stimulation at 10-15 V with a frequency of 1 Hz (Myopacer, lonOptix).
To induce contractile changes in hiPSC-CMs, we added drugs known to affect CM contractile machinery to the culture medium. We analyzed the mechanical output of cells after adding drugs. […]

[1] = extracellular caffeine slowly increased up to 10 μM (FIG. 3C)

Q: Which “kinetics of relaxation right after adding caffeine” value [1] does the source give for `Cn1c(=O)c2c(ncn2C)n(C)c1=O` [caffeine] here?
A: sudden decrease

Q: What about the “mechanical output right after adding caffeine” value [1] of the same compound?
A: sudden increase

Q: What about the “t̂ (time between peak velocity of contraction and peak velocity of relaxation)” value (low doses of caffeine slowly diffused through the culture media, single cell (FIG. 3B)) of the same compound?
A: increase

Q: What about the “magnitude of the contractions that followed and kinetics of relaxation” value (with increasing caffeine extracellular concentration (FIG. 3)) of the same compound?
A: considerably decreased
